Data: patent publication US20220331298A1, “TREATMENT OF FRAGILE X SYNDROME WITH IBUDILAST IN COMBINATION WITH METFORMIN, CANNBIDIOL, SERTRALINE OR QUERCETIN” (priority 2019, published 2022)

How the values were obtained:
Assay type in all cases: in vivo
Fmr1 KO2 mice [1] = experiment: Behavioral testing (all behavioural tests together)
Source text: (§1) Fmr1 knockout 2 (Fmr1 KO2) mice were generated by deletion of the promoter and first exon of Fmr1. The Fmr1 KO2 it is both, protein and mRNA null. In this study we used Fmr1 KO2 and wild-type (WT) littermates generated on a C57BL/6J background and repeatedly backcrossed onto a C57BL/6J background for more than eight generations.
(§2) There were five treatment groups per compound in the study with 10 male mice used per treatment group (all at 8 weeks of age): Group 1: wild-type littermate mice treated with vehicle (WT-Veh), Group 2: Fmr1 KO2 mice treated with vehicle (KO-Veh), Group 3: Fmr1 KO2 mice treated with ibudilast (KO-ibudilast); Group 4: Fmr1 KO2 mice treated with compound A (KO-[compound A]); Group 5: Fmr1 KO2 mice treated with ibudilast and compound A (KO-ibu/[compound A].
For experiments, all mice were tested once in the same apparatus. Prior to testing, mice were placed in the apparatus for some minutes before the experiment. The apparatus was cleaned with moist and dry tissues before testing each mouse. The aim was to create a low but constant background mouse odor for all experimental subjects. Testers were blind to the genotype and treatment during all testing and data analysis. We assessed weight loss, fur loss, walking, eyes open, eye discharges and general behavior.
(§3) Data were analyzed by one-way ANOVA with a Dunnett's multiple comparison post hoc test in which WT Vehicle group was used as reference and compared with all the other groups

Fmr1 KO2 mice [2] = experiment: Open field (hyperactivity)
Source text: as §1, §2
(§4) For experiments, all mice were tested once in the same apparatus. […] We assessed weight loss, fur loss, walking, eyes open, eye discharges and general behavior.
The open-field apparatus was used to test hyperactivity. […] The number of squares entered by the whole body (locomotor activity) was counted. The movement of the mouse around the field was recorded with a video tracking device for 3 min (version NT4.0, Viewpoint).
as §3

Fmr1 KO2 mice [3] = experiment: Fear conditioning
Source text: The Fmr1 KO2 it is both, protein and mRNA null. In this study we used Fmr1 KO2 and wild-type (WT) littermates generated on a C57BL/6J background and repeatedly backcrossed onto a C57BL/6J background for more than eight generations. There were five treatment groups per compound in the study with 10 male mice used per treatment group (all at 8 weeks of age): Group 1: wild-type littermate mice treated with vehicle (WT-Veh), Group 2: Fmr1 KO2 mice treated with vehicle (KO-Veh), Group 3: Fmr1 KO2 mice treated with ibudilast (KO-ibudilast); Group 4: Fmr1 KO2 mice treated with compound A (KO-[compound A]); Group 5: Fmr1 KO2 mice treated with ibudilast and compound A (KO-ibu/[compound A]. For experiments, all mice were tested once in the same apparatus. Prior to testing, mice were placed in the apparatus for some minutes before the experiment. The apparatus was cleaned with moist and dry tissues before testing each mouse. The aim was to create a low but constant background mouse odor for all experimental subjects. Testers were blind to the genotype and treatment during all testing and data analysis. We assessed weight loss, fur loss, walking, eyes open, eye discharges and general behavior. […] The dependent measure used in contextual fear conditioning was a freezing response following a pairing of an unconditioned stimulus (foot shock), with a conditioned stimulus, a particular context. […]

Fmr1 KO2 mice [4] = experiment: Social interaction (three-chambered sociability task)
Source text: as §1, §2, §4
In the three-chambered sociability task, a subject mouse was evaluated for its exploration of a novel social stimulus (novel mouse). […] The time spent exploring the novel mice was scored as exploration ratio.
as §3

Fmr1 KO2 mice [5] = experiment: Nesting
Source text: The Fmr1 KO2 it is both, protein and mRNA null. In this study we used Fmr1 KO2 and wild-type (WT) littermates generated on a C57BL/6J background and repeatedly backcrossed onto a C57BL/6J background for more than eight generations. There were five treatment groups per compound in the study with 10 male mice used per treatment group (all at 8 weeks of age): Group 1: wild-type littermate mice treated with vehicle (WT-Veh), Group 2: Fmr1 KO2 mice treated with vehicle (KO-Veh), Group 3: Fmr1 KO2 mice treated with ibudilast (KO-ibudilast); Group 4: Fmr1 KO2 mice treated with compound A (KO-[compound A]); Group 5: Fmr1 KO2 mice treated with ibudilast and compound A (KO-ibu/[compound A]. For experiments, all mice were tested once in the same apparatus. Prior to testing, mice were placed in the apparatus for some minutes before the experiment. The apparatus was cleaned with moist and dry tissues before testing each mouse. The aim was to create a low but constant background mouse odor for all experimental subjects. Testers were blind to the genotype and treatment during all testing and data analysis. We assessed weight loss, fur loss, walking, eyes open, eye discharges and general behavior. […] Mice were placed individually into the nesting cages 1 hr. before the dark phase, and the results were assessed the next morning. Nest building was scored on a 5 point scale. […]

C=C(C)[C@@H]1CCC(C)=C[C@H]1c1c(O)cc(CCCCC)cc1O [cannabidiol]
effect of the amount given alone in the behavioural tests (Fmr1 KO2 mice [1]; cannabidiol alone 5 mg/kg, FIG. 5): ineffective

CC(C)C(=O)c1c(C(C)C)nn2ccccc12 [ibudilast, 2-methyl-1-(2-propan-2-ylpyrazolo[1,5-a]pyridin-3-yl)propan-1-one]
open field (hyperactivity) rescue (Fmr1 KO2 mice [2]; ibudilast 3 mg/kg, FIG. 1): inactive | open field (hyperactivity) rescue (Fmr1 KO2 mice [2]; ibudilast 12 mg/kg, FIG. 2): fully rescued | fear conditioning rescue (Fmr1 KO2 mice [3]; ibudilast 3 mg/kg, FIG. 1): partially rescued | fear conditioning rescue (Fmr1 KO2 mice [3]; ibudilast 12 mg/kg, FIG. 2): fully rescued | sociability rescue (Fmr1 KO2 mice [4]; ibudilast 3 mg/kg, FIG. 1): inactive | sociability rescue (Fmr1 KO2 mice [4]; ibudilast 12 mg/kg, FIG. 2): fully rescued | nesting rescue (Fmr1 KO2 mice [5]; ibudilast 3 mg/kg, FIG. 1): inactive | nesting rescue (Fmr1 KO2 mice [5]; ibudilast 12 mg/kg, FIG. 2): fully rescued | effect of the amount given alone in the behavioural tests (Fmr1 KO2 mice [1]; ibudilast alone 3 mg/kg): ineffective

CN(C)C(=N)N=C(N)N [metformin]
effect of the amount given alone in the behavioural tests (Fmr1 KO2 mice [1]; metformin alone 25 mg/kg, FIG. 4): ineffective

O=c1c(O)c(-c2ccc(O)c(O)c2)oc2cc(O)cc(O)c12 [quercetin]
effect of the amount given alone in the behavioural tests (Fmr1 KO2 mice [1]; quercetin alone 5 mg/kg, FIG. 6): ineffective

CN[C@H]1CC[C@@H](c2ccc(Cl)c(Cl)c2)c2ccccc21 [sertraline]
effect of the amount given alone in the behavioural tests (Fmr1 KO2 mice [1]; sertraline alone 1 mg/kg, FIG. 3): ineffective
